We go through 18 compounds from patent US20230072683A1, “PYRIDO-PYRIMIDIN DERIVATIVES AND PHARMACEUTICAL COMPOSITION, FOR USE IN PREVENTING OR TREATING PI3 KINASE RELATED DISEASES, COMPRISING SAME AS ACTIVE INGREDIENT” (BORYUNG PHARMACEUTICAL CO., LTD, priority 2019, published 2023).

The term inhibition denotes the change of the read-out against control, counted positive when it falls.

In one experiment the target is DNA-PK(h) (Homo sapiens, UniProt P78527). Nature of the experiment: Evaluation of inhibitory activity against DNA-PK (HTRF kinase assay, GST-cMyc-p53 substrate). The class given is biochemical. Particulars: for inhibition at 0.01 µM: compound concentration 0.01 μM, read-out: EXP_VALUE(% Inhibition) DNA-PK(h) 0.01 μM; for inhibition at 0.1 µM: compound concentration 0.1 μM, read-out: EXP_VALUE(% Inhibition) DNA-PK(h) 0.1 μM. Summed up:
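Human DNA-PK with 50 μM GST-cMyc-p53 substrate; reaction started with Mg/ATP, run 30 min at room temperature, stopped with EDTA. Phospho-Ser15 p53 detected by HTRF (Eu anti-phospho-Ser15, d2 anti-GST), signal = 10000×(Em 665/Em 620).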

Experiment [1] deals with PI3K-δ (PI3K(p1108/p857) (h)) (Homo sapiens, UniProt O00329). The experiment can be described thus: Evaluation of inhibitory activity against PI3K-δ (HTRF kinase assay). The class given is biochemical. Particulars: for inhibition at 0.01 µM: compound concentration 0.01 μM, read-out: EXP_VALUE(% Inhibition) PI3K-δ 0.01 μM; for inhibition at 0.1 µM: compound concentration 0.1 μM, read-out: EXP_VALUE(% Inhibition) PI3K-δ 0.1 μM. Put shortly: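 HTRF read-out (665/620 nm ratio ×10000) used Eu-labelled anti-GST, GST-tagged GRP1 PH domain and streptavidin-allophycocyanin after EDTA/PIP3 stop.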
Background: Time-resolved FRET reads energy transfer from a long-lived donor to a nearby acceptor.

Sequence of PI3K-δ (PI3K(p1108/p857) (h)) (O00329 whole entry, the tested form may be a part): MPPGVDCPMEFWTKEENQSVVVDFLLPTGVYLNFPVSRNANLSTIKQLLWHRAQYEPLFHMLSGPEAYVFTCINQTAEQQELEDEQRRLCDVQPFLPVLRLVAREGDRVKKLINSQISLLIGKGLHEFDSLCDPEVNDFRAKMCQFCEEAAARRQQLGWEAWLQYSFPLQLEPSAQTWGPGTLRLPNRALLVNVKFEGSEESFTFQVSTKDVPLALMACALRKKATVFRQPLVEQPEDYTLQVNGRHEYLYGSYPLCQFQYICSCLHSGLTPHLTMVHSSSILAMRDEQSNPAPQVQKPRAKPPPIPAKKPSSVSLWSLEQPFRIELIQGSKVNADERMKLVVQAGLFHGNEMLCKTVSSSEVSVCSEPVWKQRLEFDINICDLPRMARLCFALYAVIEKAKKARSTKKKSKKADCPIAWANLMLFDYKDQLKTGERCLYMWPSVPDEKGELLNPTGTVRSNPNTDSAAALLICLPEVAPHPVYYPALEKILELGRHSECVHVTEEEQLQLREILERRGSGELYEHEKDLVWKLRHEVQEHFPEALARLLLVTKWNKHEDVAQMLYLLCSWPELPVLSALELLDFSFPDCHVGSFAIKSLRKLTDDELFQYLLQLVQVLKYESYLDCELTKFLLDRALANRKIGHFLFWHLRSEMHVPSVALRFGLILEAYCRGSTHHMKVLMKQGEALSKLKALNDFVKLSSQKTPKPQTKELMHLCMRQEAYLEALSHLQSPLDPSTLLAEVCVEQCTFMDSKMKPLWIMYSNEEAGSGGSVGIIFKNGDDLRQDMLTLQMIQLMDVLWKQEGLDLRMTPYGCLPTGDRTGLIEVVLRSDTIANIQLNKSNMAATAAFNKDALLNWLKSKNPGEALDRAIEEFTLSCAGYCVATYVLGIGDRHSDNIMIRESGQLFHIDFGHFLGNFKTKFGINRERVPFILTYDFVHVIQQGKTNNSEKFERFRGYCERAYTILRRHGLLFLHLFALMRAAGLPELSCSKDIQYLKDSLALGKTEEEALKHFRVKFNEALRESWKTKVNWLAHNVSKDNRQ
Sequence of PI3K-δ (PI3K(p1108/p857) (h)) (P27986 whole entry partner, the tested form may be a part): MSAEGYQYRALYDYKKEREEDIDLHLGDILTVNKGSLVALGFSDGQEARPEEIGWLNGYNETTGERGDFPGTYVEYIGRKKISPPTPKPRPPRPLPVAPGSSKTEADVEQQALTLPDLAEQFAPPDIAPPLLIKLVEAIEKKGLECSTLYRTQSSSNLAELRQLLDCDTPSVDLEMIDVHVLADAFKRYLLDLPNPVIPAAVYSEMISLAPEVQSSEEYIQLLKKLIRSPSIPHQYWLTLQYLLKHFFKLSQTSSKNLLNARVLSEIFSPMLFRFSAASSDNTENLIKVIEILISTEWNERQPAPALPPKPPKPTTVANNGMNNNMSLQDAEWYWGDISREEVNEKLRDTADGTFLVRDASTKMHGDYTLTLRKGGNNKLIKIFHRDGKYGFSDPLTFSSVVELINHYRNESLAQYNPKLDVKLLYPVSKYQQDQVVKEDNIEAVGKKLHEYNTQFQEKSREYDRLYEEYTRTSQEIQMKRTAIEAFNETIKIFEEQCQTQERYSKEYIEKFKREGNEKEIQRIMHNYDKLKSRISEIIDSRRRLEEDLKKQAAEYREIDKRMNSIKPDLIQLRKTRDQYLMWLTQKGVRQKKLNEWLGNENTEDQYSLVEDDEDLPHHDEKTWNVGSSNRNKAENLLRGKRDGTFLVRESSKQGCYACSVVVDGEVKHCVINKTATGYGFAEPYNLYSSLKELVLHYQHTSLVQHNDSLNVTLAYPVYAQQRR

Turning to `CC(C)Oc1ccc(-c2cccc3c(Cl)c([C@H](C)Nc4ncnc5[nH]ccc(=O)c45)n(-c4ccccc4)c(=O)c23)cn1` [Example 101, (S)-4-((1-(4-chloro-8-(6-isopropoxypyridin-3-yl)-1-oxo-2-phenyl-1,2-dihydroisoquinolin-3-yl)ethyl)amino)pyrido[2,3-d]pyrimidin-5(8H)-one], the inhibition at 0.01 µM on DNA-PK(h) stood at 68%; in experiment [1], 90%. Moreover, the inhibition at 0.1 µM on DNA-PK(h) turned out to be 94%; in experiment [1] it was 102%.
On to `C[C@H](Nc1ncnc2[nH]ccc(=O)c12)c1c(Cl)c2cccc(-c3cncnc3)c2c(=O)n1-c1ccccc1` [Example 102, (S)-4-((1-(4-chloro-1-oxo-2-phenyl-8-(pyrimidin-5-yl)-1,2-dihydroisoquinolin-3-yl)ethyl)amino)pyrido[2,3-d]pyrimidin-5(8H)-one], for which, at DNA-PK(h), the inhibition at 0.01 µM was 73% and the inhibition at 0.1 µM was 94%. Moreover, in experiment [1], the inhibition at 0.01 µM turned out to be 110% and the inhibition at 0.1 µM is 105%.
Take `COc1cc(-c2cccc3c(Cl)c([C@H](C)Nc4ncnc5[nH]ccc(=O)c45)n(-c4ccccc4)c(=O)c23)cc(OC)c1OC` [Example 103, (S)-4-((1-(4-chloro-1-oxo-2-phenyl-8-(3,4,5-trimethoxyphenyl)-1,2-dihydroisoquinolin-3-yl)ethyl)amino)pyrido[2,3-d]pyrimidin-5(8H)-one]: the inhibition at 0.01 µM (at DNA-PK(h); in experiment [1]) was 91% throughout. For the same compound, the inhibition at 0.1 µM at DNA-PK(h) worked out at 101%; in experiment [1], 103%.
For the compound `C[C@H](Nc1ncnc2[nH]ccc(=O)c12)c1c(Cl)c2cccc(-c3cc(F)cc(Cl)c3)c2c(=O)n1-c1ccccc1` [Example 104, (S)-4-((1-(4-chloro-8-(3-chloro-5-fluorophenyl)-1-oxo-2-phenyl-1,2-dihydroisoquinolin-3-yl)ethyl)amino)pyrido[2,3-d]pyrimidin-5(8H)-one], on DNA-PK(h), the inhibition at 0.01 µM is 16% and the inhibition at 0.1 µM worked out at 66%. Further, in experiment [1], the inhibition at 0.01 µM worked out at 63% and the inhibition at 0.1 µM was 95%.
`C[C@H](Nc1ncnc2[nH]ccc(=O)c12)c1c(Cl)c2cccc(-c3ccc(-c4ccncc4)cc3)c2c(=O)n1-c1ccccc1` [Example 105, (S)-4-((1-(4-chloro-1-oxo-2-phenyl-8-(4-(pyridin-4-yl)phenyl)-1,2-dihydroisoquinolin-3-yl)ethyl)amino)pyrido[2,3-d]pyrimidin-5(8H)-one]: at DNA-PK(h), the inhibition at 0.01 µM is 12% and the inhibition at 0.1 µM was found to be 75%. For the same compound, in experiment [1], the inhibition at 0.01 µM came to 75% and the inhibition at 0.1 µM is 103%.
In the case of `C[C@H](Nc1ncnc2[nH]ccc(=O)c12)c1c(Cl)c2cccc(-c3cccc(F)c3Cl)c2c(=O)n1-c1ccccc1` [Example 106, (S)-4-((1-(4-chloro-8-(2-chloro-3-fluorophenyl)-1-oxo-2-phenyl-1,2-dihydroisoquinolin-3-yl)ethyl)amino)pyrido[2,3-d]pyrimidin-5(8H)-one], at DNA-PK(h), the inhibition at 0.01 µM amounted to 14% and the inhibition at 0.1 µM amounted to 59%. Moreover, in experiment [1], the inhibition at 0.01 µM is 53% and the inhibition at 0.1 µM was 87%.
Taken in the same sequence, the figures for `C[C@H](Nc1ncnc2[nH]ccc(=O)c12)c1c(Cl)c2cccc(-c3cc(F)ccc3Cl)c2c(=O)n1-c1ccccc1` [Example 107, (S)-4-((1-(4-chloro-8-(2-chloro-5-fluorophenyl)-1-oxo-2-phenyl-1,2-dihydroisoquinolin-3-yl)ethyl)amino)pyrido[2,3-d]pyrimidin-5(8H)-one] were 24%, 54%, 59% and 91%.
On to `C[C@H](Nc1ncnc2[nH]ccc(=O)c12)c1c(Cl)c2cccc(-c3cc(O)cc(F)c3)c2c(=O)n1-c1ccccc1` [Example 108, (S)-4-((1-(4-chloro-8-(3-fluoro-5-hydroxyphenyl)-1-oxo-2-phenyl-1,2-dihydroisoquinolin-3-yl)ethyl)amino)pyrido[2,3-d]pyrimidin-5(8H)-one], for which the inhibition at 0.01 µM is 7% at DNA-PK(h) and 99% in experiment [1]. Besides, the inhibition at 0.1 µM at DNA-PK(h) was determined as 66%; in experiment [1] it was 102%.
For `Cc1c(F)cccc1-c1cccc2c(Cl)c([C@H](C)Nc3ncnc4[nH]ccc(=O)c34)n(-c3ccccc3)c(=O)c12` [Example 109, (S)-4-((1-(4-chloro-8-(3-fluoro-2-methylphenyl)-1-oxo-2-phenyl-1,2-dihydroisoquinolin-3-yl)ethyl)amino)pyrido[2,3-d]pyrimidin-5(8H)-one], on DNA-PK(h), the inhibition at 0.01 µM came out at 10% and the inhibition at 0.1 µM worked out at 65%. Further, in experiment [1], the inhibition at 0.01 µM was 61% and the inhibition at 0.1 µM was 94%.
Turning to `Cc1ncccc1-c1cccc2c(Cl)c([C@H](C)Nc3ncnc4[nH]ccc(=O)c34)n(-c3ccccc3)c(=O)c12` [Example 110, (S)-4-((1-(4-chloro-8-(2-methylpyridin-3-yl)-1-oxo-2-phenyl-1,2-dihydroisoquinolin-3-yl)ethyl)amino)pyrido[2,3-d]pyrimidin-5(8H)-one], the inhibition at 0.01 µM on DNA-PK(h) is 57%; in experiment [1], 93%. Also, the inhibition at 0.1 µM at DNA-PK(h) worked out at 91%; in experiment [1], 97%.
Taken in the same sequence, the figures for `C[C@H](Nc1ncnc2[nH]ccc(=O)c12)c1c(Cl)c2cccc(-c3ccc4ncn(C)c4c3)c2c(=O)n1-c1ccccc1` [Example 111, (S)-4-((1-(4-chloro-8-(1-methyl-1H-benzo[d]imidazol-6-yl)-1-oxo-2-phenyl-1,2-dihydroisoquinolin-3-yl)ethyl)amino)pyrido[2,3-d]pyrimidin-5(8H)-one] were 87%, 80%, 98% and 96%.
For the compound `C[C@H](Nc1ncnc2[nH]ccc(=O)c12)c1c(Cl)c2cccc(-c3cnc(N(C)C)nc3)c2c(=O)n1-c1ccccc1` [Example 112, (S)-4-((1-(4-chloro-8-(2-(dimethylamino)pyrimidin-5-yl)-1-oxo-2-phenyl-1,2-dihydroisoquinolin-3-yl)ethyl)amino)pyrido[2,3-d]pyrimidin-5(8H)-one], at DNA-PK(h), the inhibition at 0.01 µM worked out at 78% and the inhibition at 0.1 µM turned out to be 97%. For the same compound, in experiment [1], the inhibition at 0.01 µM is 92% and the inhibition at 0.1 µM came out at 96%.
Taken in the same sequence, the figures for `C[C@H](Nc1ncnc2[nH]ccc(=O)c12)c1c(Cl)c2cccc(-c3ccc4nccn4c3)c2c(=O)n1-c1ccccc1` [Example 113, (S)-4-((1-(4-chloro-8-(imidazo[1,2-a]pyridin-6-yl)-1-oxo-2-phenyl-1,2-dihydroisoquinolin-3-yl)ethyl)amino)pyrido[2,3-d]pyrimidin-5(8H)-one] were 79%, 98%, 82% and 93%.
Taken in the same sequence, the figures for `C[C@H](Nc1ncnc2[nH]ccc(=O)c12)c1c(Cl)c2cccc(-c3ccc4c(c3)ncn4C)c2c(=O)n1-c1ccccc1` [Example 114, (S)-4-((1-(4-chloro-8-(1-methyl-1H-benzo[d]imidazol-5-yl)-1-oxo-2-phenyl-1,2-dihydroisoquinolin-3-yl)ethyl)amino)pyrido[2,3-d]pyrimidin-5(8H)-one] were 77%, 97%, 87% and 95%.
Taken in the same sequence, the figures for `C[C@H](Nc1ncnc2[nH]ccc(=O)c12)c1c(Cl)c2cccc(-c3ccc(-c4ccccc4)nc3)c2c(=O)n1-c1ccccc1` [Example 115, (S)-4-((1-(4-chloro-1-oxo-2-phenyl-8-(6-phenylpyridin-3-yl)-1,2-dihydroisoquinolin-3-yl)ethyl)amino)pyrido[2,3-d]pyrimidin-5(8H)-one] were 15%, 72%, 78% and 96%.
For `C[C@H](Nc1ncnc2[nH]ccc(=O)c12)c1c(Cl)c2cccc(-c3ccc4c(ccn4C)c3)c2c(=O)n1-c1ccccc1` [Example 116, (S)-4-((1-(4-chloro-8-(1-methyl-1H-indol-5-yl)-1-oxo-2-phenyl-1,2-dihydroisoquinolin-3-yl)ethyl)amino)pyrido[2,3-d]pyrimidin-5(8H)-one], the inhibition at 0.01 µM on DNA-PK(h) was determined as 32%; in experiment [1] it was 73%. The inhibition at 0.1 µM at DNA-PK(h) was found to be 91%; in experiment [1], 101%.
For `C[C@H](Nc1ncnc2[nH]ccc(=O)c12)c1c(Cl)c2cccc(-c3ccco3)c2c(=O)n1-c1ccccc1` [Example 117, (S)-4-((1-(4-chloro-8-(furan-2-yl)-1-oxo-2-phenyl-1,2-dihydroisoquinolin-3-yl)ethyl)amino)pyrido[2,3-d]pyrimidin-5(8H)-one], at DNA-PK(h), the inhibition at 0.01 µM came out at 86% and the inhibition at 0.1 µM amounted to 99%. For the same compound, in experiment [1], the inhibition at 0.01 µM is 82% and the inhibition at 0.1 µM came out at 89%.
As to `C[C@H](Nc1ncnc2[nH]ccc(=O)c12)c1c(Cl)c2cccc(-c3ccc(C4CCC4)cc3)c2c(=O)n1-c1ccccc1` [Example 118, (S)-4-((1-(4-chloro-8-(4-cyclobutylphenyl)-1-oxo-2-phenyl-1,2-dihydroisoquinolin-3-yl)ethyl)amino)pyrido[2,3-d]pyrimidin-5(8H)-one], on DNA-PK(h), the inhibition at 0.01 µM is 26% and the inhibition at 0.1 µM amounted to 74%. In experiment [1], the inhibition at 0.01 µM was determined as 29% and the inhibition at 0.1 µM is 81%.
